{"source": "patent US20250034167A1", "about": "“HETEROCYCLIC COMPOUNDS AND METHODS OF USE” (AMGEN INC., priority 2021, published 2025)", "key": {"[1]": {"system": "Phosphorylation of ERK1/2 in AsPC-1 cells", "assay": "Phospho-ERK1/2 MSD Assay", "type": "cell-based", "experimental": "Sixteen hours prior to compound treatment, AsPC-1 cells were seeded in 96-well cell culture plates at a density of 25,000 cells/well and incubated at 37° C., 5% CO2. A compound dose-response titration was diluted in growth media, added to appropriate wells of a cell culture plate, and then incubated at 37° C., 5% CO2 for 2 hours."}, "[2]": {"molecular_target": "His-tagged KRAS G12D protein (Homo sapiens, UniProt P01116, G12D)", "sequence (P01116 1-188 isoform P01116-2 G12D)": "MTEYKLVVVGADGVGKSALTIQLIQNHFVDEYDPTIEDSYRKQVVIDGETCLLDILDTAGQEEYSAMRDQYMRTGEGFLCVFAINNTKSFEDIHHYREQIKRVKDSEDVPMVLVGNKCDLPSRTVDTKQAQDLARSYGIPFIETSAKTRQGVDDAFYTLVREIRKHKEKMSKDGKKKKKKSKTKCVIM", "assay": "biochemical", "method": "The plate was incubated for 30 minutes at room temperature. Biotinylated KRPep-2d substrate (Amgen) was diluted to nM in Assay Buffer and 2 μL was added to all wells and incubated for 1 hour at room temperature. Detection Reagent (0.4 nM LANCE Eu-W1024 Anti-6×His (Perkin Elmer AD0401), 5 nM streptavidin-d2 (Cisbio 610SADLA)) was prepared in Assay Buffer, then 4 µL was added to the plate and incubated for 1 hour at room temperature."}, "[3]": {"conditions": "Homo sapiens, ASPC1, 2 h, read-out: 2 h p-ERK (AsPC-1 cells), IC50, AsPC-1 cells, 2 h compound treatment"}, "[4]": {"conditions": "read-out: 2 h p-ERK (AsPC-1 cells), IC50, AsPC-1 cells, 2 h compound treatment"}}, "note": "Like-named read-outs stand apart in the source and are kept apart here."}
{"smiles": "CCc1c(F)ccc2cc(O)cc(-c3ncc4c(N5CCC=CC(O)C5)nc(OC[C@@]56CCCN5C[C@H](F)C6)nc4c3F)c12", "note": "(stereo partly drawn) [Example 135, 1-(7-(8-Ethyl-7-fluoro-3-hydroxynaphthalen-1-yl)-8-fluoro-2-(((2R,7aS)-2-fluorotetrahydro-1H-pyrrolizin-7a(5H)-yl)methoxy)pyrido[4,3-d]pyrimidin-4-yl)-2,3,6,7-tetrahydro-1H-azepin-3-ol]", "values": [{"measurement": "IC50", "setting": "[1]; [3]", "value": 81, "unit": "nM"}, {"measurement": "IC50", "setting": "[2]", "value": 1, "unit": "nM"}]}
{"smiles": "Oc1cc(-c2ncc3c(N4CC5CC(O)C(C5)C4)nc(OC[C@@]45CCCN4C[C@H](F)C5)nc3c2F)c2c(F)c(F)ccc2c1", "note": "(stereo partly drawn) [Example 18, 3-(7-(7,8-Difluoro-3-hydroxynaphthalen-1-yl)-8-fluoro-2-(((2R,7aS)-2-fluorotetrahydro-1H-pyrrolizin-7a(5H)-yl)methoxy)pyrido[4,3-d]pyrimidin-4-yl)-3-azabicyclo[3.2.1]octan-6-ol]", "values": [{"measurement": "IC50", "setting": "[1]; [3]", "value": 105, "unit": "nM"}, {"measurement": "IC50", "setting": "[2]", "value": 3, "unit": "nM"}]}
{"smiles": "CCc1c(F)ccc2cc(O)cc(-c3ncc4c(N5CCC[C@@H](C(=O)O)C5)nc(OC[C@@]56CCCN5C[C@H](F)C6)nc4c3F)c12", "note": "[Example 138, (R)-1-(7-(8-Ethyl-7-fluoro-3-hydroxynaphthalen-1-yl)-8-fluoro-2-(((2R,7aS)-2-fluorotetrahydro-1H-pyrrolizin-7a(5H)-yl)methoxy)pyrido[4,3-d]pyrimidin-4-yl)piperidine-3-carboxylic acid]", "values": [{"measurement": "IC50", "setting": "[1]; [3]", "value": "> 10000", "unit": "nM"}, {"measurement": "IC50", "setting": "[2]", "value": 16, "unit": "nM"}]}
{"smiles": "C[C@@]1(O)CCCN(c2nc(OC[C@@]34CCCN3C[C@H](F)C4)nc3c(F)c(-c4cc(O)cc5cccc(F)c45)ncc23)C1", "note": "[Example 57, (R)-1-(8-Fluoro-7-(8-fluoro-3-hydroxynaphthalen-1-yl)-2-(((2R,7aS)-2-fluorotetrahydro-1H-pyrrolizin-7a(5H)-yl)methoxy)pyrido[4,3-d]pyrimidin-4-yl)-3-methylpiperidin-3-ol]", "values": [{"measurement": "IC50", "setting": "[1]; [3]", "value": 115, "unit": "nM"}, {"measurement": "IC50", "setting": "[2]", "value": 2, "unit": "nM"}]}
{"smiles": "C#Cc1c(F)ccc2cc(O)cc(-c3ncc4c(N5CC6CC(O)C(C6)C5)nc(OC[C@@]56CCCN5C[C@H](F)C6)nc4c3F)c12", "note": "(single isomer, unassigned) [Example 27]", "values": [{"measurement": "IC50", "setting": "[1]; [4]", "value": 1030, "unit": "nM"}, {"measurement": "IC50", "setting": "[2]", "value": 6, "unit": "nM"}]}
{"smiles": "CCc1c(F)ccc2cc(O)cc(-c3ncc4c(N5C[C@@H](O)[C@@H](O)C5)nc(OC[C@@]56CCCN5C[C@H](F)C6)nc4c3F)c12", "note": "[Example 11, (3S,4R)-1-(7-(8-Ethyl-7-fluoro-3-hydroxynaphthalen-1-yl)-8-fluoro-2-(((2R,7aS)-2-fluorotetrahydro-1H-pyrrolizin-7a(5H)-yl)methoxy)pyrido[4,3-d]pyrimidin-4-yl)pyrrolidine-3,4-diol]", "values": [{"measurement": "IC50", "setting": "[1]; [3]", "value": "> 10000", "unit": "nM"}, {"measurement": "IC50", "setting": "[2]", "value": 3, "unit": "nM"}]}
{"smiles": "CCc1c(F)ccc2cc(O)cc(-c3ncc4c(N5C[C@H]6CC[C@@H]5C(O)C6)nc(OC[C@@]56CCCN5C[C@H](F)C6)nc4c3F)c12", "note": "(stereo partly drawn) [Example 17, (1R,4S)-2-(7-(8-Ethyl-7-fluoro-3-hydroxynaphthalen-1-yl)-8-fluoro-2-(((2R,7aS)-2-fluorotetrahydro-1H-pyrrolizin-7a(5H)-yl)methoxy)pyrido[4,3-d]pyrimidin-4-yl)-2-azabicyclo[2.2.2]octan-6-ol]", "values": [{"measurement": "IC50", "setting": "[1]; [3]", "value": 3180, "unit": "nM"}, {"measurement": "IC50", "setting": "[2]", "value": 38, "unit": "nM"}]}
{"smiles": "CCc1c(F)ccc2cc(O)cc(-c3ncc4c(N5C[C@@H](O)C[C@@H](F)C5)nc(OC[C@@]56CCCN5C[C@H](F)C6)nc4c3F)c12", "note": "(mixture of isomers) [Example 115, rac-(3S,5R)-1-(7-(8-Ethyl-7-fluoro-3-hydroxynaphthalen-1-yl)-8-fluoro-2-(((2R,7aS)-2-fluorotetrahydro-1H-pyrrolizin-7a(5H)-yl)methoxy)pyrido[4,3-d]pyrimidin-4-yl)-5-fluoropiperidin-3-ol]", "values": [{"measurement": "IC50", "setting": "[1]; [3]", "value": 83, "unit": "nM"}, {"measurement": "IC50", "setting": "[2]", "value": 3, "unit": "nM"}]}
{"smiles": "Oc1cc(-c2ncc3c(N4CCC[C@@H](O)C4)nc(OC[C@@]45CCCN4C[C@H](F)C5)nc3c2F)c2c(F)c(F)ccc2c1", "note": "[Example 12, (R)-1-(7-(7,8-Difluoro-3-hydroxynaphthalen-1-yl)-8-fluoro-2-(((2R,7aS)-2-fluorotetrahydro-1H-pyrrolizin-7a(5H)-yl)methoxy)pyrido[4,3-d]pyrimidin-4-yl)piperidin-3-ol]", "values": [{"measurement": "IC50", "setting": "[1]; [3]", "value": 377, "unit": "nM"}, {"measurement": "IC50", "setting": "[2]", "value": 2, "unit": "nM"}]}
{"smiles": "CCc1c(F)ccc2cc(O)cc(-c3ncc4c(N5CC(C)CC(O)C5)nc(OC[C@@]56CCCN5C[C@H](F)C6)nc4c3F)c12", "note": "(mixture of isomers) [Example 96, rac-(3R,5S)-1-(7-(8-Ethyl-7-fluoro-3-hydroxynaphthalen-1-yl)-8-fluoro-2-(((2R,7aS)-2-fluorotetrahydro-1H-pyrrolizin-7a(5H)-yl)methoxy)pyrido[4,3-d]pyrimidin-4-yl)-5-methylpiperidin-3-ol]", "values": [{"measurement": "IC50", "setting": "[1]; [3]", "value": 119, "unit": "nM"}, {"measurement": "IC50", "setting": "[2]", "value": 5, "unit": "nM"}]}
{"smiles": "CCc1c(F)ccc2cc(O)cc(-c3ncc4c(N5CCC[C@@H](S(N)(=O)=O)C5)nc(OC[C@@]56CCCN5C[C@H](F)C6)nc4c3F)c12", "note": "[Example 1, (R)-1-(7-(8-Ethyl-7-fluoro-3-hydroxynaphthalen-1-yl)-8-fluoro-2-(((2R,7aS)-2-fluorotetrahydro-1H-pyrrolizin-7a(5H)-yl)methoxy)pyrido[4,3-d]pyrimidin-4-yl)piperidine-3-sulfonamide]", "values": [{"measurement": "IC50", "setting": "[1]; [3]", "value": 165, "unit": "nM"}, {"measurement": "IC50", "setting": "[2]", "value": 1, "unit": "nM"}]}
{"smiles": "CCc1c(F)ccc2cc(O)cc(-c3ncc4c(N5CCCC(C)(C(N)=O)C5)nc(OC[C@@]56CCCN5C[C@H](F)C6)nc4c3F)c12", "note": "(stereo partly drawn) [Example 68, 1-(7-(8-Ethyl-7-fluoro-3-hydroxynaphthalen-1-yl)-8-fluoro-2-(((2R,7aS)-2-fluorotetrahydro-1H-pyrrolizin-7a(5H)-yl)methoxy)pyrido[4,3-d]pyrimidin-4-yl)-3-methylpiperidine-3-carboxamide]", "values": [{"measurement": "IC50", "setting": "[1]; [3]", "value": 1690, "unit": "nM"}, {"measurement": "IC50", "setting": "[2]", "value": 8, "unit": "nM"}]}
{"smiles": "CCc1c(F)ccc2cc(O)cc(-c3ncc4c(N5CCC[C@@H](C(N)=O)C5)nc(OC[C@@]56CCCN5C[C@H](F)C6)nc4c3F)c12", "note": "[Example 162, (R)-1-(7-(8-Ethyl-7-fluoro-3-hydroxynaphthalen-1-yl)-8-fluoro-2-(((2R,7aS)-2-fluorotetrahydro-1H-pyrrolizin-7a(5H)-yl)methoxy)pyrido[4,3-d]pyrimidin-4-yl)piperidine-3-carboxamide]", "values": [{"measurement": "IC50", "setting": "[1]; [3]", "value": 1610, "unit": "nM"}, {"measurement": "IC50", "setting": "[2]", "value": 2, "unit": "nM"}]}
{"smiles": "C=CCC1CCCc2cc(O)cc(-c3ncc4c(N5CCC[C@@](C)(O)C5)nc(OC[C@@]56CCCN5C[C@H](F)C6)nc4c3F)c21", "note": "(stereo partly drawn) [Example 175, (3R)-1-(7-(8-Allyl-3-hydroxy-5,6,7,8-tetrahydro-naphthalen-1-yl)-8-fluoro-2-(((2R,7aS)-2-fluorotetrahydro-1H-pyrrolizin-7a(5H)-yl)methoxy)pyrido[4,3-d]pyrimidin-4-yl)-3-methyl-piperidin-3-ol]", "values": [{"measurement": "IC50", "setting": "[1]; [3]", "value": 10, "unit": "nM"}, {"measurement": "IC50", "setting": "[2]", "value": 8, "unit": "nM"}]}
{"smiles": "CCc1c(F)ccc2cc(O)cc(-c3ncc4c(N5CC(CS(N)(=O)=O)C5)nc(OC[C@@]56CCCN5C[C@H](F)C6)nc4c3F)c12", "note": "[Example 82, (1-(7-(8-Ethyl-7-fluoro-3-hydroxynaphthalen-1-yl)-8-fluoro-2-(((2R,7aS)-2-fluorotetrahydro-1H-pyrrolizin-7a(5H)-yl)methoxy)pyrido[4,3-d]pyrimidin-4-yl)azetidin-3-yl)methanesulfonamide]", "values": [{"measurement": "IC50", "setting": "[1]; [3]", "value": "> 10000", "unit": "nM"}, {"measurement": "IC50", "setting": "[2]", "value": 33, "unit": "nM"}]}
{"smiles": "CCc1c(F)ccc2cc(O)cc(-c3ncc4c(N5CC[C@H](O)[C@@H](O)C5)nc(OC[C@@]56CCCN5C[C@H](F)C6)nc4c3F)c12", "note": "(relative stereo) [Example 101, rel-(3S,4S)-1-(7-(8-Ethyl-7-fluoro-3-hydroxynaphthalen-1-yl)-8-fluoro-2-(((2R,7aS)-2-fluorotetrahydro-1H-pyrrolizin-7a(5H)-yl)methoxy)pyrido[4,3-d]pyrimidin-4-yl)piperidine-3,4-diol]", "values": [{"measurement": "IC50", "setting": "[1]; [3]", "value": "> 10000", "unit": "nM"}, {"measurement": "IC50", "setting": "[2]", "value": 20, "unit": "nM"}]}
{"smiles": "CCc1c(F)ccc2cc(O)cc(-c3ncc4c(N5CCC(C(N)=O)CC5)nc(OC[C@@]56CCCN5C[C@H](F)C6)nc4c3F)c12", "note": "[Example 6, 1-(7-(8-Ethyl-7-fluoro-3-hydroxynaphthalen-1-yl)-8-fluoro-2-(((2R,7aS)-2-fluorotetrahydro-1H-pyrrolizin-7a(5H)-yl)methoxy)pyrido[4,3-d]pyrimidin-4-yl)piperidine-4-carboxamide]", "values": [{"measurement": "IC50", "setting": "[1]; [3]", "value": "> 10000", "unit": "nM"}, {"measurement": "IC50", "setting": "[2]", "value": 55, "unit": "nM"}]}
{"smiles": "CCc1c(F)ccc2cc(O)cc(-c3ncc4c(N5CC(O)(C(N)=O)C5)nc(OC[C@@]56CCCN5C[C@H](F)C6)nc4c3F)c12", "note": "[Example 83, 1-(7-(8-Ethyl-7-fluoro-3-hydroxynaphthalen-1-yl)-8-fluoro-2-(((2R,7aS)-2-fluorotetrahydro-1H-pyrrolizin-7a(5H)-yl)methoxy)pyrido[4,3-d]pyrimidin-4-yl)-3-hydroxyazetidine-3-carboxamide]", "values": [{"measurement": "IC50", "setting": "[1]; [3]", "value": "> 10000", "unit": "nM"}, {"measurement": "IC50", "setting": "[2]", "value": 2, "unit": "nM"}]}
{"smiles": "C#Cc1c(F)ccc2cc(O)cc(-c3ncc4c(N5CCCC(O)(C(F)F)C5)nc(OC[C@@]56CCCN5C[C@H](F)C6)nc4c3F)c12", "note": "(single isomer, unassigned) [Example 41]", "values": [{"measurement": "IC50", "setting": "[1]; [3]", "value": 25, "unit": "nM"}, {"measurement": "IC50", "setting": "[2]", "value": 1, "unit": "nM"}]}
{"smiles": "CCc1c(F)ccc2cc(O)cc(-c3ncc4c(N5CCCC(O)(C(F)F)C5)nc(OC[C@@]56CCCN5C[C@H](F)C6)nc4c3F)c12", "note": "(single isomer, unassigned) [Example 39]", "values": [{"measurement": "IC50", "setting": "[1]; [4]", "value": 13, "unit": "nM"}, {"measurement": "IC50", "setting": "[2]", "value": 2, "unit": "nM"}]}
{"smiles": "CCc1c(F)ccc2cc(O)cc(-c3ncc4c(N5CCCC(F)(F)CC5)nc(OC[C@@]56CCCN5C[C@H](F)C6)nc4c3F)c12", "note": "[Example 149, 4-(4-(4,4-Difluoroazepan-1-yl)-8-fluoro-2-(((2R,7aS)-2-fluorotetrahydro-1H-pyrrolizin-7a(5H)-yl)methoxy)pyrido[4,3-d]pyrimidin-7-yl)-5-ethyl-6-fluoronaphthalen-2-ol]", "values": [{"measurement": "IC50", "setting": "[1]; [3]", "value": 702, "unit": "nM"}, {"measurement": "IC50", "setting": "[2]", "value": 12, "unit": "nM"}]}
